Experimental data as given in US20260092179A1, “GENETICALLY MODIFIED HOST CELLS PRODUCING VIOLACEIN, ANALOGUES, AND DERIVATIVES THEREOF” (OCTARINE BIO APS, priority 2022, published 2026).
≈ marks a conversion by molar mass, not a printed value.

Experiments:
Format in all cases: physicochemical
[1] = Acidic pH stability of dyed fabrics (colour fastness, ΔE); conditions: pH 5 with HCl
Method: In order to assess the stability and colour fastness of violacein and violacein derivatives dyed onto fabrics, dyed fabrics were subjected to a number of conditions. Fabrics were dyed according to Example 18 and colour coordinates and colour change before and after exposure to a given condition were determined as described in Example 18. To measure temperature stability, fabrics were incubated in an oven set to 80° c. for 4 h. To measure stability under acid and alkaline conditions, fabrics were fully submerged in water solutions set to pH 8 with NaOH and pH 5 with HCl and incubated at room temperature for 30 minutes. Fabrics were then incubated at 37° c. for 4 h. To measure stability during laundering, fabrics were washed at 30° c. under the “mix” setting of a Siemens IQ300 washing machine, then dried in a Siemens IQ300 dryer until dry. To measure artificial light stability, fabrics were placed under an LED lamp at room temperature for 16 h. To measure UV light stability, fabrics were placed under a UV lamp at room temperature for 1 h.

[2] = UV absorption capability (absorbance maxima, UV-A, UV-B, UV-C absorption) by HPLC; conditions: for UV absorption capability in the UV-C region: 245 nm; for Total UV absorption UV C (245 nm): AUC of HPLC peak at 245 nm per mM; for Total UV absorption UV B (305 nm): AUC of HPLC peak at 305 nm per mM; for Total UV absorption UV A (360 nm): AUC of HPLC peak at 360 nm per mM
Method: The software Agilent Openlab CDS Chemstation Rev.
Violacein is reported as being a potent UV absorbent able to effectively absorb UV radiation, however, much less is known about the other violacein derivatives. To investigate the potential of using violacein and violacein derivatives as UV inhibitors and to potentially impart UV protection to fabrics, the UV absorption spectra of each compound was analyzed by HPLC and the total absorption capability at each of the most relevant UV wavelengths quantified.
For the quantification of UV absorption capacity of the compound of interest, a chromatographic separation on the F5 column and a gradient of water/acetonitrile containing 0.05% formic acid was run according to Example 5). […] The compounds were quantified based on the signal at 230 nm, using calibration curves of authentic analytical standards.
The UV absorption capacity is represented in mAU.min/mM. UV-A, UV-B and UV-C represent the most relevant regions where UV protection is required. UV-C is the most harmful type of UV radiation and can be generated by inorganic sources. UV-B radiation predominantly comes from the suns rays and is responsible for sun burn. UV-A radiation is also derived predominantly from the suns rays, and while UV-A radiation is less harmful than UV-B or UV-C but is much more prevalent.

[3] = Solubility of violacein in 100% methanol (stock solutions); conditions: organic solvent or mixture, read-out: soluble in 100% methanol
Excerpt: In Example 7, S. cerevisiae was engineered to produce violacein and 3 other violacein derivatives (deoxyviolacein, proviolacein, and prodeoxyviolacein). However, during cultivation experiments a number of issues were observed. […] On agar plate we also observed a number of colonies losing their colour, indicating rapid selection against the introduced biosynthetic pathway. […] Issues with toxicity, solubility, and product export have significant negative effects on production of these compounds and limit the commercial viability. To overcome these issues, we investigated whether glycosylation of the compounds could provide a positive impact and improve production. Because violacein and violacein derivatives are not naturally glycosylated, we first sought to identify heterologous glycosyltransferase enzymes displaying promiscuous activity towards these compounds by running a series of in vitro glycosyltransferase enzyme assays using violacein and violacein derivatives as substrate

[4] = Acrylic, before and after the stability test
[5] = Bleached cotton, before and after the stability test
[6] = Diacetate, before and after the stability test
[7] = Nylon 6,6, before and after the stability test
[8] = Polyester, before and after the stability test
[9] = Wool, before and after the stability test

O=C1NC(c2c[nH]c3ccccc23)=C/C1=C1\C(=O)Nc2ccccc21 [deoxyviolacein]
L ([1]; Acrylic, After test): 59.8
a ([1]; Acrylic, After test): 2.01
b ([1]; Acrylic, After test): −3.77
L ([1]; Acrylic, Before test): 58.82
a ([1]; Acrylic, Before test): 2.34
b ([1]; Acrylic, Before test): −2.86
ΔE [1, 4]: 1.38
L ([1]; Bleached cotton, After test): 60.27
a ([1]; Bleached cotton, After test): 0.74
b ([1]; Bleached cotton, After test): −8.67
L ([1]; Bleached cotton, Before test): 58.08
a ([1]; Bleached cotton, Before test): 1.02
b ([1]; Bleached cotton, Before test): −7.23
ΔE [1, 5]: 2.64
L ([1]; Diacetate, After test): 46.41
a ([1]; Diacetate, After test): 12.25
b ([1]; Diacetate, After test): −16.83
L ([1]; Diacetate, Before test): 46.86
a ([1]; Diacetate, Before test): 12.01
b ([1]; Diacetate, Before test): −17.99
ΔE [1, 6]: 1.27
L ([1]; Nylon 6,6, After test): 44.46
a ([1]; Nylon 6,6, After test): 6.37
b ([1]; Nylon 6,6, After test): −22.27
L ([1]; Nylon 6,6, Before test): 43
a ([1]; Nylon 6,6, Before test): 5.21
b ([1]; Nylon 6,6, Before test): −20.47
ΔE [1, 7]: 2.59
L ([1]; Polyester, After test): 64.95
a ([1]; Polyester, After test): 2.03
b ([1]; Polyester, After test): −5.57
L ([1]; Polyester, Before test): 62.77
a ([1]; Polyester, Before test): 2
b ([1]; Polyester, Before test): −5.04
ΔE [1, 8]: 2.24
L ([1]; Wool, After test): 64.01
a ([1]; Wool, After test): 0.41
b ([1]; Wool, After test): −0.81
L ([1]; Wool, Before test): 63.73
a ([1]; Wool, Before test): 0.62
b ([1]; Wool, Before test): −0.94
ΔE [1, 9]: 0.37
UV absorption capability in the UV-C region [2]: particularly high
Total UV absorption UV C (245 nm) [2]: 9251.6 (mAU · min)/mM
Total UV absorption UV B (305 nm) [2]: 0 (mAU · min)/mM
Total UV absorption UV A (360 nm) [2]: 702.8 (mAU · min)/mM

O=C1N=C(c2c[nH]c3ccc(O)cc23)C=C1c1c[nH]c2ccccc12 [proviolacein]
L ([1]; Acrylic, After test): 58.2
a ([1]; Acrylic, After test): −1.53
b ([1]; Acrylic, After test): 3.12
L ([1]; Acrylic, Before test): 59.15
a ([1]; Acrylic, Before test): −0.61
b ([1]; Acrylic, Before test): 1.45
ΔE [1, 4]: 2.13
L ([1]; Bleached cotton, After test): 65.48
a ([1]; Bleached cotton, After test): 1.87
b ([1]; Bleached cotton, After test): 2.2
L ([1]; Bleached cotton, Before test): 62.48
a ([1]; Bleached cotton, Before test): 1.73
b ([1]; Bleached cotton, Before test): 2.27
ΔE [1, 5]: 3.00
L ([1]; Diacetate, After test): 59.6
a ([1]; Diacetate, After test): 4.35
b ([1]; Diacetate, After test): 7.87
L ([1]; Diacetate, Before test): 60.94
a ([1]; Diacetate, Before test): 4.79
b ([1]; Diacetate, Before test): 4.9
ΔE [1, 6]: 3.29
L ([1]; Nylon 6,6, After test): 52.72
a ([1]; Nylon 6,6, After test): −1.67
b ([1]; Nylon 6,6, After test): −3.52
L ([1]; Nylon 6,6, Before test): 50.84
a ([1]; Nylon 6,6, Before test): 0.04
b ([1]; Nylon 6,6, Before test): −4.68
ΔE [1, 7]: 2.79
L ([1]; Polyester, After test): 64.14
a ([1]; Polyester, After test): −1.28
b ([1]; Polyester, After test): 2.92
L ([1]; Polyester, Before test): 64.55
a ([1]; Polyester, Before test): −1.43
b ([1]; Polyester, Before test): 1.3
ΔE [1, 8]: 1.68
L ([1]; Wool, After test): 66.56
a ([1]; Wool, After test): −0.93
b ([1]; Wool, After test): 5.56
L ([1]; Wool, Before test): 65.49
a ([1]; Wool, Before test): −1.55
b ([1]; Wool, Before test): 5.81
ΔE [1, 9]: 1.26
UV absorption capability in the UV-B region ([2]; 305 nm): particularly high
Total UV absorption UV C (245 nm) [2]: 3142.9 (mAU · min)/mM
Total UV absorption UV B (305 nm) [2]: 4097.7 (mAU · min)/mM
Total UV absorption UV A (360 nm) [2]: 0 (mAU · min)/mM

O=C1NC(c2c[nH]c3ccc(O)cc23)=C/C1=C1\C(=O)Nc2ccccc21 [violacein]
solubility [3]: 5 mM (≈ 1720 µg/mL)
L ([1]; Acrylic, After test): 66.03
a ([1]; Acrylic, After test): 2.78
b ([1]; Acrylic, After test): 0.02
L ([1]; Acrylic, Before test): 65.53
a ([1]; Acrylic, Before test): 2.41
b ([1]; Acrylic, Before test): 0.93
ΔE [1, 4]: 1.10
L ([1]; Bleached cotton, After test): 59.6
a ([1]; Bleached cotton, After test): 2.72
b ([1]; Bleached cotton, After test): −7.71
L ([1]; Bleached cotton, Before test): 59.65
a ([1]; Bleached cotton, Before test): 3.71
b ([1]; Bleached cotton, Before test): −6.68
ΔE [1, 5]: 1.43
L ([1]; Diacetate, After test): 45.59
a ([1]; Diacetate, After test): 9.13
b ([1]; Diacetate, After test): −11.74
L ([1]; Diacetate, Before test): 45.97
a ([1]; Diacetate, Before test): 8.41
b ([1]; Diacetate, Before test): −13
ΔE [1, 6]: 1.50
L ([1]; Nylon 6,6, After test): 34.94
a ([1]; Nylon 6,6, After test): 5.43
b ([1]; Nylon 6,6, After test): −20.31
L ([1]; Nylon 6,6, Before test): 34.82
a ([1]; Nylon 6,6, Before test): 5.47
b ([1]; Nylon 6,6, Before test): −20.22
ΔE [1, 7]: 0.16
L ([1]; Polyester, After test): 68.04
a ([1]; Polyester, After test): 1.96
b ([1]; Polyester, After test): −1.34
L ([1]; Polyester, Before test): 66.71
a ([1]; Polyester, Before test): 3.52
b ([1]; Polyester, Before test): −2.04
ΔE [1, 8]: 2.17
L ([1]; Wool, After test): 69.34
a ([1]; Wool, After test): 1.2
b ([1]; Wool, After test): 0.61
L ([1]; Wool, Before test): 69.04
a ([1]; Wool, Before test): 0.77
b ([1]; Wool, Before test): 1.2
ΔE [1, 9]: 0.79
UV absorption capability in the UV-C region [2]: particularly high
Total UV absorption UV C (245 nm) [2]: 8876.8 (mAU · min)/mM
Total UV absorption UV B (305 nm) [2]: 1011.6 (mAU · min)/mM
Total UV absorption UV A (360 nm) [2]: 411.4 (mAU · min)/mM
